Laboratory results taken from ChEMBL document CHEMBL6103622 (J Med Chem, 2025).
Active and inactive are the calls of the source. The rule behind the calls is not given here.

How the values were obtained:
[1] = molecular target: T1, Macrophage colony-stimulating factor 1 receptor (Mus musculus) (UniProt P09581); assay: Inhibition of CSF-1R signaling pathway activation in female C57BL/6 mouse BMDM cells assessed as reduction in STAT3 phosphorylation preincubated with compounds for 4 hrs followed by M-CSF stimulation and measured after 30 mins by Western blot analysis; format: cell-based; settings: dose 10-100 nM, time 4.5 hrs
T1 sequence (whole entry): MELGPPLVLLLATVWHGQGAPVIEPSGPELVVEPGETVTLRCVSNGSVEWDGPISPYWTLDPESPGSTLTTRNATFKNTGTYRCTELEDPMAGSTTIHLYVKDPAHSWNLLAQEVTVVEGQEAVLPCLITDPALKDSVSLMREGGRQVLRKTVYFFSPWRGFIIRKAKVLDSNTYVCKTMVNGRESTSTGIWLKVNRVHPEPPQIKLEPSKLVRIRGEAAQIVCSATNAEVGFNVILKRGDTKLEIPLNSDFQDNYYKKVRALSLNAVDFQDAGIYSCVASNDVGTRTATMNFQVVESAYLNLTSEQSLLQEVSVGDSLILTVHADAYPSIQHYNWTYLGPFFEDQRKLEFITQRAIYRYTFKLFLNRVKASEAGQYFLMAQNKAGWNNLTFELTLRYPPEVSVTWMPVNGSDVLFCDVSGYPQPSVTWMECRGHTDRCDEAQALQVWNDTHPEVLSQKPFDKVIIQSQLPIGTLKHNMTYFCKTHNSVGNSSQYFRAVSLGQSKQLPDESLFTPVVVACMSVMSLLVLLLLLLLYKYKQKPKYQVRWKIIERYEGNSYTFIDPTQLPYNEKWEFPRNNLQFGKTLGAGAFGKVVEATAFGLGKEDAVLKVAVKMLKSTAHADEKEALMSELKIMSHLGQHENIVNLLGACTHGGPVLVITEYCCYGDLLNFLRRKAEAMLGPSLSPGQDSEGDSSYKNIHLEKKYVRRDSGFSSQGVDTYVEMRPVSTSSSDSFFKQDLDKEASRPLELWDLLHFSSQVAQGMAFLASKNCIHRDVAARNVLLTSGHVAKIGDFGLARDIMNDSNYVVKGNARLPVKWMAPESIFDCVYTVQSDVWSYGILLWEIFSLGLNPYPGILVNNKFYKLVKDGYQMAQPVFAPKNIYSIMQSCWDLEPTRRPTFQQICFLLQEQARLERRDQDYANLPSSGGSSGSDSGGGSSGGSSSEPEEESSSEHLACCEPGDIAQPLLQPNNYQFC

[2] = molecular target: Macrophage colony-stimulating factor 1 receptor (Homo sapiens, UniProt P07333); assay: Binding affinity to recombinant CSF-1R (unknown origin) assessed as equilibrium dissociation constant by SPR analysis
Macrophage colony-stimulating factor 1 receptor, sequence (P07333 whole entry): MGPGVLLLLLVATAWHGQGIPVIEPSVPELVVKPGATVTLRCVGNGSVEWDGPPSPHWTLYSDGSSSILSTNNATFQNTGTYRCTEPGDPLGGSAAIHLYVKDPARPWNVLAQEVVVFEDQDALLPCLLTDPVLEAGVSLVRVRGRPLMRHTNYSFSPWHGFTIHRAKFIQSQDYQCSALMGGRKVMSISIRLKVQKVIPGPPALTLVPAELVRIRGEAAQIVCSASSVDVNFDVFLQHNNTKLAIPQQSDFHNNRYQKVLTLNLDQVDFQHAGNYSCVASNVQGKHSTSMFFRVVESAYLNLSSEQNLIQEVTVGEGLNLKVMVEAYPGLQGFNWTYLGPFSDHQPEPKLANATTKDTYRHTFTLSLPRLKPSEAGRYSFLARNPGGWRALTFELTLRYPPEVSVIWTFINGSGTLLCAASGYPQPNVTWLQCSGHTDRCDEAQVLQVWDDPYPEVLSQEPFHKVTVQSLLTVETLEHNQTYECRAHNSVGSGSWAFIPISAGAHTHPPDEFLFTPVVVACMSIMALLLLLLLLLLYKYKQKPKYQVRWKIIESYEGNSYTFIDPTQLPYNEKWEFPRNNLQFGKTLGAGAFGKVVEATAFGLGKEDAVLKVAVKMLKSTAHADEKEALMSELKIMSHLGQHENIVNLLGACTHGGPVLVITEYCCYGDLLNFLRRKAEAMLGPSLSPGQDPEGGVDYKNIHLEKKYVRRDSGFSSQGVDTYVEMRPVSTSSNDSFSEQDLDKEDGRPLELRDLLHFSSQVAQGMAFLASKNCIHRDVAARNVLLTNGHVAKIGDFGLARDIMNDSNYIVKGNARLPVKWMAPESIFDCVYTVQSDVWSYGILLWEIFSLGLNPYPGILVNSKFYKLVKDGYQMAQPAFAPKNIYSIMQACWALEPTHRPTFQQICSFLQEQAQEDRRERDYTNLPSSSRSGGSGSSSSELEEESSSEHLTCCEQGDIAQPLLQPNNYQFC

BMDM [3] = assay: Induction of repolarization of M2 like macrophage into M1 phenotype in female C57BL/6 mouse BMDM cells assessed as decrease in Arg1 mRNA expression at 10 to 100 nM stimulated with mouse IL4/IL-13 for 24 hrs followed by compound addition and measured after 24 hrs by qPCR analysis; format: functional, cell-based; settings: dose 10-100 nM
BMDM [4] = assay: Induction of repolarization of M2 like macrophage into M1 phenotype in female C57BL/6 mouse BMDM cells assessed as decrease in Chil3l mRNA expression at 10 to 100 nM stimulated with mouse IL4/IL-13 for 24 hrs followed by compound addition and measured after 24 hrs by qPCR analysis; format: functional, cell-based; settings: dose 10-100 nM
BMDM [5] = assay: Induction of repolarization of M2 like macrophage into M1 phenotype in female C57BL/6 mouse BMDM cells assessed as decrease in Rental mRNA expression at 10 to 100 nM stimulated with mouse IL4/IL-13 for 24 hrs followed by compound addition and measured after 24 hrs by qPCR analysis; format: functional, cell-based; settings: dose 10-100 nM
MC-38 [6] = assay: Induction of apoptosis in mouse MC38 cells cocultured with condition medium of M2 macrophages assessed as early apoptotic cells at 10 nM by Annexin V/PI staining based flow cytometric analysis (reference value: 3.16 %); format: functional
MC-38 [7] = assay: Induction of apoptosis in mouse MC38 cells cocultured with condition medium of M2 macrophages assessed as late apoptotic cells at 10 nM by Annexin V/PI staining based flow cytometric analysis (reference value: 1.66 %); format: functional
MC-38 [8] = assay: Induction of apoptosis in mouse MC38 cells cocultured with condition medium of M2 macrophages assessed as late apoptotic cells at 100 nM by Annexin V/PI staining based flow cytometric analysis (reference value: 1.66 %); format: functional
MC-38 [9] = assay: Inhibition of cell viability in mouse MC38 cells cocultured with condition medium of M2 macrophages at 10 to 100 nM by MTT assay; format: functional, cell-based; settings: dose 10-100 nM
MC-38 [10] = assay: Inhibition of cell proliferation in mouse MC38 cells at 10 to 100 nM incubated for 20 hrs by CCK8 assay; format: functional, cell-based; settings: dose 10-100 nM
[11] = test system: Colorectal cancer organoid; assay: Antitumor activity against patient derived CRC organoids assessed as reduction in number of organoids at 10 to 100 nM incubated for 72 hrs; format: functional, tissue-based; settings: Homo sapiens, Colorectum, dose 10-100 nM
[12] = AUC (0 to t) in Sprague-Dawley rat at 1 mg/kg, iv; format: ADME, organism-based; settings: in vivo
[13] = Apparent volume of distribution in Sprague-Dawley rat at 1 mg/kg, iv; format: ADME, organism-based; settings: in vivo, read-out: Vz
[14] = Tmax in Sprague-Dawley rat at 10 mg/kg, po; format: ADME, organism-based; settings: in vivo
[15] = AUC (0 to t) in Sprague-Dawley rat at 10 mg/kg, po; format: ADME, organism-based; settings: in vivo
[16] = Oral bioavailability in Sprague-Dawley rat at 10 mg/kg; format: ADME, organism-based; settings: in vivo
MC-38 [17] = assay: Antitumor activity against mouse MC38 cells allografted in C57BL/6 mouse model assessed as reduction in tumor volume at 20 mg/kg, ip administered once daily for 14 days relative to control; format: functional; set-up: scale not given: the % may be the effect or the level left; settings: time 14 day
MC-38 [18] = assay: Antitumor activity against mouse MC38 cells allografted in C57BL/6 mouse model assessed as reduction in tumor weight at 10 mg/kg, ip administered once daily for 14 days relative to control; format: functional; set-up: scale not given: the % may be the effect or the level left; settings: time 14 day
MC-38 [19] = assay: Antitumor activity against mouse MC38 cells allografted in C57BL/6 mouse model assessed as downregulation of Chil3l mRNA expression in tumor at 10 to 20 mg/kg, ip administered once daily for 14 days by qPCR analysis; format: functional, organism-based; settings: dose 10-20 mg/kg, time 14.0 day
MC-38 [20] = assay: Antitumor activity against mouse MC38 cells allografted in C57BL/6 mouse model assessed as downregulation of […] mRNA expression in tumor at 10 to 20 mg/kg, ip administered once daily for 14 days by qPCR analysis; format: functional, organism-based; settings: dose 10-20 mg/kg, time 14.0 day
MC-38 [21] = assay: Antitumor activity against mouse MC38 cells allografted in C57BL/6 mouse model assessed as upregulation of Il1 mRNA expression in tumor at 10 to 20 mg/kg, ip administered once daily for 14 days by qPCR analysis; format: functional, organism-based; settings: dose 10-20 mg/kg, time 14.0 day
MC-38 [22] = assay: Antitumor activity against mouse MC38 cells allografted in C57BL/6 mouse model assessed as upregulation of Nos2 mRNA expression in tumor at 10 to 20 mg/kg, ip administered once daily for 14 days by qPCR analysis; format: functional, organism-based; settings: dose 10-20 mg/kg, time 14.0 day

inhibition [1]: Dose-dependent-effect | Kd [2]: 2.96 nM | AUC(0-t) [12]: 0.526 µg·h/mL | Vd [13]: 3.28 L/kg | Tmax [14]: 1.13 h | AUC(0-t) [15]: 4.17 µg·h/mL | bioavailability [16]: 79.2%
Structure (SMILES): Cc1nc(NC(=O)N[C@@H]2CCCC[C@H]2O)ccc1Oc1c[nH]c2ncc(Cl)cc12
Activity (BMDM [3]): Active | Activity (BMDM [4]): Active | Activity (BMDM [5]): Active | Activity (MC-38 [6]): 6.15% | Activity (MC-38 [7]): 3.25% | Activity (MC-38 [8]): 5.67% | inhibition (MC-38 [9]): Active | inhibition (MC-38 [10]): Minimal_effect | Activity [11]: inactive | Activity (MC-38 [17]): 54% | Activity (MC-38 [18]): 39% | Activity (MC-38 [19]): Active | Activity (MC-38 [20]): Active | Activity (MC-38 [21]): Active | Activity (MC-38 [22]): Active
